Earlier results as cited in PMC3368153 (Nature chemical biology, 2012).

Experiments:
[1] = test system: γ2 F77L GABAAR
[2] = test system: γ2 F77I GABAAR; conditions: versus wild type
[3] = test system: α1 Y209A GABAAR; conditions: versus wild type
[4] = test system: γ2 F77Y GABAAR; conditions: versus wild type
[5] = test system: α1 H101R mutation GABAAR
[6] = test system: α1 His101 replaced by glutamine, GABAAR; conditions: versus wild type
[7] = test system: α1 H101C GABAAR; conditions: versus wild type

Compound	tolerance of point mutation γ2 F77L (affinity) [1]	loss of affinity (factor), γ2 F77I [2]	decrease in binding affinity (factor), α1 Y209A [3]	affinity loss (factor), γ2 F77Y [4]	affinity in α1 H101R mutant [5]	further results
CN1C(=O)CN=C(c2ccccc2)c2cc(Cl)ccc21 [diazepam]	tolerated well	4-5	40	250		
CCOC(=O)c1ncn2c1CN(C)C(=O)c1cc(F)ccc1-2 [flumazenil]	tolerated well	2,000	41		tolerate this mutation	
CN1C(=O)CN=C(c2ccccc2F)c2cc([N+](=O)[O-])ccc21 [flunitrazepam]					drastically reduced affinity	loss of affinity (factor), glutamine at α1 His101 [6]: 15; loss of affinity (factor), cysteine at α1 His101 [7]: 200
Ro15-8670		4-5				
dichlorodiazepam				700		
monochlorodiazepam				530		
